Source: patent publication US10322112B2, “Compound combinations for attenuation of bacterial virulence” (priority 2016, dated 2019)

What was measured:
QscR = QscR (Pseudomonas aeruginosa, UniProt G3XD77); settings: compounds at 100 mm; E. coli reporter strain JLD271/pJN105Q/pSC11-Q; 100 mm OdDHL = 100%; error ±10%
Source text: Construction of pSC11-Q: A 348 bp fragment spanning the upstream region of PA1897 (¢304 to +43 relative to the PA1897 translationalstart codon) was amplified from plasmid pJL101*by using primers 5′-GAATAT GGATCC TCTCTC CGCAGA TACCTG-3′ (BamHI site underlined) SEQ ID NO:5 and 5′-GCTATT GAATTC TGAAGA TGAATA GCGCCAC-3′ (EcoRI site underlined) SEQ ID NO:6. The PCR-generated fragment was digested with EcoRI and BamHI and subsequently ligated into EcoRI/BamHI-digested pPROBE-KT to generate pPROBE-KQ2. […] CGCC-3′ (BamHI site underlined) SEQ ID NO:8. The PCR-generated fragment was digested with SalI and BamHI and subsequently ligated into SalI/BamHI-digested pSC11 to generate pSC11-Q.
E. coli reporter gene assays: Primary assays for RhlR, LasR, and QscR activity in E. coli JLD271 reporter (beta-galactosidase) strains were performed as reported by Welsh et al. 2015, with the following modifications:
For all primary and dose-response antagonism assays, the concentration of native ligand utilized was approximately equal to its EC50 value in each bacterial reporter strain. For RhlR, LasR, and QscR primary antagonism assays, synthetic ligand (100 mm) was screened against BHL (10 mm), OdDHL (2 nm), and OdDHL (15 nm), respectively. For RhlR, LasR, and QscR primary agonism assays, synthetic compound (100 mm) was screened alongside and compared to the natural ligand (900 mm BHL or 100 mm OdDHL) for the receptor. As part of the beta-galactosidase assay protocol, plates to which CPRG substrate had been added were incubated at either 25° C. (LasR assay) or 30° C. (RhlR and QscR assays) until positive control wells developed a deep red color (10 min for LasR, 30 min for RhlR, and 60 min for QscR). Dose-response reporter gene assays were performed according to these protocols by using varying concentrations of compound.

P. aeruginosa (PAO1) = experiment: Pyocyanin assay; assay type: cell-based, Pseudomonas aeruginosa; settings: MOPS Glutamate and Glucose media, complete or iron/phosphate depleted, 17 h, 100 μM (compounds 1, 2, 3), 25 μM (compound 4), relative to DMSO
Description: A. Pyocyanin Assay Protocol. The amount of pyocyanin in P. aeruginosa culture supernatants was measured following a reported protocol (O'Loughlin et al., 2013) with modifications. A 10 mL overnight culture of P. aeruginosa PAO1 was grown for 16 h. DMSO stock solutions of test compounds (20 mM) were prepared, and 10 μL or 5 μL aliquots were added to sterile 15 mL borosilicate glass test tubes. An inoculating culture was prepared by diluting the overnight culture 1:100 into freshly prepared assay medium (see above), and 2 mL aliquots of this subculture were added to each test tube (0.5% DMSO, final). The cultures were grown for 17 h, and the final cell density measured by reading OD600. Relative pyocyanin levels were measured by first pelleting 1.5 mL of well-mixed culture at 4,000 g for 10 min, transferring 200 μL of the resulting supernatant to a clear, plastic 96-well microtiter plate, and reading absorbance at 695 nm. Media background absorbance (measured from a “no bacteria” control) was subtracted, the resulting values growth normalized by dividing by the final OD600378, and the data plotted relative to a DMSO-treated positive control. B. Rhamnolipid Assay Protocol. Rhamnolipid was quantified following a reported protocol (Koch et al., 1991) with modifications. Assay cultures were prepared and grown in an identical manner to the pyocyanin assay above. Aliquots of the final culture supernatant (1 mL) were transferred to 1 dram glass vials and extracted twice with 1 mL diethyl ether. The pooled organic fractions were evaporated to dryness, and the resulting residue reconstituted in 200 μL de-ionized water. In a 1.7 mL plastic centrifuge tube, 50 μL of this extract was diluted into 450 μL of a solution of 0.19% (w/v) orcinol in 50% (v/v) concentrated H2SO4 (or 20 μL extract into 480 μL orcinol solution for cultures grown in MOPS Glucose medium). The tubes were vortexed thoroughly to mix and incubated in an 80° C. heating block for 30 min. After briefly cooling to room temperature, 200 μL of the resulting yellow to yellow-orange solution was transferred to a clear 96-well microtiter plate, and the absorbance at 421 nm measured. Media background absorbance (measured from a “no bacteria” control) was subtracted, the resulting values growth normalized by dividing by the final OD600, and the data plotted relative to a DMSO-treated positive control. C. Elastase B Assay Protocol. The amount of elastase B in P. aeruginosa culture supernatants was measured following a reported protocol (Geske et al., 2007) with modifications. Assay cultures were prepared and grown in an identical manner to the pyocyanin assay above. Aliquots of the final culture supernatant (50 μL) were added to the wells of a clear, plastic 96-well plate. To each well, 150 μL of 0.5% (w/v) elastin-congo red conjugate (Elastin Products Co.) in Tris buffer (10 mM Tris-HCl, 1 mM CaCl2, pH 7.2) was added. The plate was sealed with a polypropylene storage mat (Costar 3080) and incubated in a 37° C. shaking incubator (200 rpm) attached to a Labquake rotator for 12 h (for experiments in SCFM2) or 24 h (for experiments in MOPS medium). To quantify elastase B activity, the undigested elastin was pelleted by centrifugation of the assay plate at 1,500 g for 10 min, after which 100 μL of the supernatant was transferred to a new, clear 96-well plate, and the absorbance at 490 nm measured. Media background absorbance (measured from a “no bacteria” control) was subtracted, the resulting values growth normalized by dividing by the final OD600, and the data plotted relative to a DMSO-treated positive control.

QscR, sequence (G3XD77 entry or part of it): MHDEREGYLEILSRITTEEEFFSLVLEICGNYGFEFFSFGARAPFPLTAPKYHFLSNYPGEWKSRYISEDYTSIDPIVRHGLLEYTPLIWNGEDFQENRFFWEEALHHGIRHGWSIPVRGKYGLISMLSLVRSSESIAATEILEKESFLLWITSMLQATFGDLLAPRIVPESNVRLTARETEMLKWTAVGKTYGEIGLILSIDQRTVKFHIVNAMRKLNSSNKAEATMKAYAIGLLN

SMILES: O=C(N[C@H]1CCOC1=O)C1CCCC1 [compound 3]
- Activation [%] QscR (QscR): 4%
- pyocyanin production, single compound screens (P. aeruginosa (PAO1)): blocked pyocyanin production under nearly all of the environmental conditions tested
